Set-up in all cases: species or system human
The test system of test [1] is IgE of walnut-allergic patients' sera. The experiment in a line: IgE binding to solid phase synthetic peptides (SPOTs analysis). As to conditions: for number of patients' sera positive for the peptide: 20 individual patients' sera. The source says: The study was approved by the Human Subjects Review Committee at the University of California, Davis. Sera from 20 walnut-allergic patients with a convincing history of life-threatening systemic allergic reactions to walnuts, positive ImmunoCAP assays (Pharmacia, Inc., Diagnostics, Columbus, Ohio), and evidence of IgE against rJug r 1 (see below) were used in this study. Control sera were obtained from atopic patients with no history of walnut sensitivity, and one patient with life-threatening reactions to walnuts, positive ImmunoCAP assay, positive serum IgE immunoblot to walnut proteins, but negative for binding to the 2S albumin.
Based on the published amino acid sequence of Jug r 1 and our unpublished data determining the subunit cleavage sites,^6 twenty-five 13-amino acid peptides, offset by three amino acids, were synthesized which corresponded to the entire 64-amino acid length of the large subunit (FIG. 1A) and 26-amino acid length of the small subunit (FIG. 1B). Additional peptides bearing the target epitope (QGLRGEEMEEMV), SEQ ID NO:1, mutated forms of this peptide, and a non-IgE binding peptide (LSQRGLQSSSV), SEQ ID NO:6, were also synthesized. […] versions of the target peptide were created via a single site alanine substitution at each position along the amino acid sequence, and six mutated peptides were synthesized using multiple alanine substitutions, as shown in FIG. 6.
Peptides were synthesized on derivatized cellulose sheets using 9-fluorenlymethoxy carbonyl-derived (Fmoc) amino acids as described by the manufacturer (Genosys Biotechnologies, Inc., The Woodlands, Tex.). Briefly, cellulose membranes containing free hydroxy groups were esterfied with an Fmoc-amino acid dissolved in 1-methyl-2 pyrrolidione. The coupling reaction was followed by washing in N,N-dimethylformamide (DMF) and the amino acids were acetylated with acetic anhydride. The membranes were deprotected by washing in DMF and incubation with a solution of 20% piperidine in DMF followed by another wash in DMF. Coupling, acetylation, and deprotection steps were repeated for each cycle. During the final cycle, a mixture of dichloromethane, trifluoroacetic acid, and triisobutylsilane (1:1:0.05) was used to deprotect the acid-labile amino acid side chains.
(§1) The peptide-containing membranes were washed in TBS and incubated o/n at RT in blocking solution as directed by the manufacturer (Genosys Biotechnologies, Inc., The Woodlands, Tex.). Membranes were then washed in TBS-T for 10 min and incubated o/n at 4° C. with individual patient's serum or pooled patients' sera diluted 1:5 in blocking buffer (total sera:blocking buffer). This incubation was followed by three 5-min washes in TBS-T and an o/n (4° C.) incubation with ^125I-anti-human IgE (Hycor Biomedical Inc., Garden Grove, Calif.) diluted 1:10 in a mixture of PBS, 5% nonfat dry milk, and 0.05% Tween-20. Three final 10 min washes in PBS/0.05% Tween-20 were performed and IgE-peptide reactivity identified after a 48 hr exposure at −70° C. to Kodak Biomax x-ray film.

The subject of test [2] is patient serum IgE binding to rJug r 1. The experiment in a line: Inhibition by soluble epitope peptide of IgE binding to dot-blotted rJug r 1. On the procedure:
For dot-blot assays, a graphite pencil was used to circumscribe 4 mm×8 mm elipses on a dry 0.4 μm NC membrane (Shleicher & Schuell; Keen, N.H.). The NC was incubated in distilled-deionized water (ddH2O) on a rocking table for 5 min and allowed to air dry before each dot was loaded with 0.11 μg of rJug r 1 in 2 μl of ddH2O. The antigen-loaded NC was then rinsed in ddH2O as described above, placed protein side up on 3MM paper (Whatman Intl. Ltd., Maidstone, England), and dried under a 60-watt light until all moisture was removed. […]
(§2) To test the specificity and reactivity of the epitope-specific IgE, control, pooled and fractionated patients' sera were pre-incubated o/n at 4° C. with different amounts (70, 7.0, and 0.7 μg) of the soluble epitope peptide, or a soluble non-specific peptide. […] Detection of IgE binding to the solid-phase synthetic peptides and dot-blotted rJug r 1 was detected using ^125I-anti-human IgE and ECL+, respectively, as described earlier.

Test [3] concerns E1-specific IgE of patients' sera. The experiment in a line: Inhibition by soluble epitope peptide of IgE binding to solid-phase E1 peptide. On the procedure:
as §1
A soluble form of an identified IgE-reactive peptide is (QGLRGEEMEEMV) was synthesized by Fmoc protocols on an automated peptide synthesizer (Model 433A, Applied Biosystems, Foster City, Calif.).
as §2

Where [4] appears, read: of the 20 patients tested, FIG. 4.

From patent US7250489B2, “Purified linear polypeptide epitope from walnuts and associated methods” (priority 2001, dated 2007) come the findings set out here.

No end group written: not given here.

Turning to “LSQRSQQQCRQ [(−) peptide, reference compound]”, the “number of patients' sera positive for the peptide” value in test [1] was “none”.

Consider “QGLRGEEMEEMV (not fully specified; listed as Juglans regia) [E1, solid-phase and soluble forms]”, for which the “inhibition of IgE binding to rJug r 1, eluate (E1 epitope-specific) IgE fractions” value in test [2] (70 μg soluble peptide, affinity column purified IgE fractions) is given as “Inhibition was again observed”. For the same sequence, the “inhibition of binding of IgE to the intact rJug r 1” value in test [2] (patients' IgE, soluble peptide) is on record as “did not completely inhibit”. Also, in test [1], the “number of patients' sera positive for the peptide” value worked out at 15. For the same sequence, in test [1] (setting [4]), the “number of patients exhibiting moderate recognition of the epitope peptide” value was “six”, the “number of patients exhibiting strong recognition of the epitope peptide” value is listed as “five”, the “number of patients exhibiting weak recognition of the epitope peptide” value was “four” and the “number of patients showing no recognition of the epitope peptide” value was “five”. Further, in test [3] (70 μg soluble peptide), the “inhibition of binding of E1-specific IgE to the solid phase epitope” value is given as “completely inhibit”. In addition, the “inhibition of IgE binding to solid-phase E1 peptide” value in test [3] (70, 7.0, 0.7 μg peptide pre-incubated with whole patients' sera, FIG. 5C) is on record as “Partial to complete inhibition”.
